From patent US9487515B2, “Compounds modulating c-fms and/or c-kit activity and uses therefor” (Plexxikon Inc., priority 2006, dated 2016)

Key:
MAP4K4 (HGK) = MAP4K4 (HGK) (Homo sapiens, UniProt O95819); assay: HGK biochemical assay (AlphaScreen); settings: 10 μM ATP
Description: Substrate was 10 nM biotin-ERM (T567/T564/T558, Cell Signaling, Inc., cat#1344). MAP4K4 kinase was at 0.5 ng per sample.

c-kit = c-kit (Homo sapiens, UniProt P10721); assay: c-kit assays of Examples 40 and 41 (AlphaScreen kinase assays at 10 and 100 μM ATP, 33P-ATP filter assay, M-07e SCF-stimulated proliferation and phosphorylation)
[1] = test system: cells with activating c-kit mutations; settings: mutations in the catalytic region; cited from earlier work
TrkA kinase = target: T1, TrkA kinase (Homo sapiens, UniProt P04629); assay: TrkA biochemical assay (AlphaScreen); settings: 100 μM ATP
T1 construct: purchased Upstate Biotech #14-571
T1 sequence (P04629 33-796): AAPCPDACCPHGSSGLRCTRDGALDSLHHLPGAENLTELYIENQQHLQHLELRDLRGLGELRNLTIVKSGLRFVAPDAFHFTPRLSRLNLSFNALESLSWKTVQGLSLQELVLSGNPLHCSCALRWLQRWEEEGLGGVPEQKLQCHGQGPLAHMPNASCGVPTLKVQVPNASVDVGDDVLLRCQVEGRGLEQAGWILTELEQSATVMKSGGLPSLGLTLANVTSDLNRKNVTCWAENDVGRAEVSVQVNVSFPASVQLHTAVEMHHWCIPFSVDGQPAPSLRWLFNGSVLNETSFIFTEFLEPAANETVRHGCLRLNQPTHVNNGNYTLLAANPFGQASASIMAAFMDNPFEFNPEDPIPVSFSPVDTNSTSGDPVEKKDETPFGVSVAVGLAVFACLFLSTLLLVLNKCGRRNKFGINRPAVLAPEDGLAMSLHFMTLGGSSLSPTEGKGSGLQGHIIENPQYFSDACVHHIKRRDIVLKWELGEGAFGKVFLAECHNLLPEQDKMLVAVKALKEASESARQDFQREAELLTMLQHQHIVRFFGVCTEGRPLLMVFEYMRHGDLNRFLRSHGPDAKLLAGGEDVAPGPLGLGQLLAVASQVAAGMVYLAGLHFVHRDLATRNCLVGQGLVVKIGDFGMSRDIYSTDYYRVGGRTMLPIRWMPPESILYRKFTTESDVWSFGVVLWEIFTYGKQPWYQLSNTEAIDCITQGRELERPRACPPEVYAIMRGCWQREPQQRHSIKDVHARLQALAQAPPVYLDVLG

Sequence of MAP4K4 (HGK) (O95819 whole entry): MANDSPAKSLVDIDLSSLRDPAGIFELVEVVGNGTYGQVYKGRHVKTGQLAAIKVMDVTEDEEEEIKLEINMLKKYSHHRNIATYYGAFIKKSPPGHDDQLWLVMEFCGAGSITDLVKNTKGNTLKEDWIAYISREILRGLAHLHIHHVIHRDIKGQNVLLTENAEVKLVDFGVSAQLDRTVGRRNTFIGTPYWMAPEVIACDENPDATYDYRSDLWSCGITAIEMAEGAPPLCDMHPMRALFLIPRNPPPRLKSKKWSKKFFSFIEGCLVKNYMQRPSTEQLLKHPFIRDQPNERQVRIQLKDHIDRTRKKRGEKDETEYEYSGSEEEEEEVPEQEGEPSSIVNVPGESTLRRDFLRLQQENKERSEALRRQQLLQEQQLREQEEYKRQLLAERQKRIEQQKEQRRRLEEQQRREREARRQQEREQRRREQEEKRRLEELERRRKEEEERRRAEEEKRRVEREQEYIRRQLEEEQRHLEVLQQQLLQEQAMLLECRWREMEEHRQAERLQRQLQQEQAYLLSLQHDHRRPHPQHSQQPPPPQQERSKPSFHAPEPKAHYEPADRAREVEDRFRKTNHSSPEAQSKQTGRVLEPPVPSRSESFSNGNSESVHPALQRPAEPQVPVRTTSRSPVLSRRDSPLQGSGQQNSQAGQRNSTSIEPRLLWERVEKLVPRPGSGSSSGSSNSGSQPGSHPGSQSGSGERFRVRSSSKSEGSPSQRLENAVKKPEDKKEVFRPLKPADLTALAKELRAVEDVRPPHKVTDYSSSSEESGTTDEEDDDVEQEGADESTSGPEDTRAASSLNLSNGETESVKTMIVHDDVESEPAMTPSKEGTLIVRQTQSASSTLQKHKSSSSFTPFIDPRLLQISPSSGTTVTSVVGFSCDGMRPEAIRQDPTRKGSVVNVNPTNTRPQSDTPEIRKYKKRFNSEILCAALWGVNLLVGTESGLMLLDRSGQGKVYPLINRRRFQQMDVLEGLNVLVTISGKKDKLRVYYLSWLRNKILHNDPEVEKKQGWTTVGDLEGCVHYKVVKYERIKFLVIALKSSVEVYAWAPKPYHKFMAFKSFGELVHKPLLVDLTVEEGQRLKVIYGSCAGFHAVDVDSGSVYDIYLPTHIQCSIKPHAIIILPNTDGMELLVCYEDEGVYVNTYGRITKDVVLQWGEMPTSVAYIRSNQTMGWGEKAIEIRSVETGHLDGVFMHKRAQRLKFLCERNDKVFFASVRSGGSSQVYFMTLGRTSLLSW
Sequence of c-kit (P10721 with tags, fused parts or gaps): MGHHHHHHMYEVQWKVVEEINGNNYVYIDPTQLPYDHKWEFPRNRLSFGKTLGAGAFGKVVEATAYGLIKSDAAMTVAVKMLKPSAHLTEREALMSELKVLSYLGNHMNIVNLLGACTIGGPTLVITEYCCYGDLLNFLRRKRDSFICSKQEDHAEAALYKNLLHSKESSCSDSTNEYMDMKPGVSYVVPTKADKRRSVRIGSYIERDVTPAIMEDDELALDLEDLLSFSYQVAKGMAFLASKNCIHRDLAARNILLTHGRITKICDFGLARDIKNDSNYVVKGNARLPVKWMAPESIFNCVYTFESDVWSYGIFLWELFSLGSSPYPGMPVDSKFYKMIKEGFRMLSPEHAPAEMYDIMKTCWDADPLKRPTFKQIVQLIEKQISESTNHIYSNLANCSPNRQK

SMILES	IC50 (MAP4K4 (HGK)) [nM]	IC50 (c-kit) [nM]	inhibition of cells with c-kit mutations [1]	IC50 (TrkA kinase) [nM]
Cc1cnc2[nH]cc(Cc3ccc(NCc4c(F)cccc4F)nc3)c2c1 [P-0341, (2,6-Difluoro-benzyl)-[5-(5-methyl-1H-pyrrolo[2,3-b]pyridin-3-ylmethyl)-pyridin-2-yl]-amine]	< 1000	< 1000	–	–
Fc1ccc(CNc2nc(Cl)c(Cc3c[nH]c4ncc(Cl)cc34)s2)nc1 [P-0240, [4-Chloro-5-(5-chloro-1H-pyrrolo[2,3-b]pyridin-3-ylmethyl)-thiazol-2-yl]-(5-fluoro-pyridin-2-ylmethyl)-amine]	< 1000	< 1000	–	–
Cc1ccc(NC(=O)c2ccc(CN3CCN(C)CC3)cc2)cc1Nc1nccc(-c2cccnc2)n1 [STI571]	–	–	did not inhibit the cells	–
Clc1ccc(CNc2nc(Cl)c(Cc3c[nH]c4ncc(Cl)cc34)s2)nc1 [P-0203, [4-Chloro-5-(5-chloro-1H-pyrrolo[2,3-b]pyridin-3-ylmethyl)-thiazol-2-yl]-(5-chloro-pyridin-2-ylmethyl)-amine]	< 1000	< 1000	–	–
Cc1nn(C(=O)NCCc2ccc(F)cc2)c(C)c1Cc1c[nH]c2ncc(Cl)cc12 [P-0157, 4-(5-Chloro-1H-pyrrolo[2,3-b]pyridin-3-ylmethyl)-3,5-dimethyl-pyrazole-1-carboxylic acid [2-(4-fluoro-phenyl)-ethyl]-amide]	–	< 1000	–	< 1000
Cc1cccc(CNc2nc(Cl)c(Cc3c[nH]c4ncccc34)s2)n1 [P-0171, [4-Chloro-5-(1H-pyrrolo[2,3-b]pyridin-3-ylmethyl)-thiazol-2-yl]-(6-methyl-pyridin-2-ylmethyl)-amine]	–	< 1000	–	< 1000
Fc1ccc(CNc2nc(Cl)c(Cc3c[nH]c4ncccc34)s2)cc1 [P-0156, [4-Chloro-5-(1H-pyrrolo[2,3-b]pyridin-3-ylmethyl)-thiazol-2-yl]-(4-fluoro-benzyl)-amine]	< 1000	< 1000	–	–
O=C(c1cnc(NCc2ccc(F)cc2)s1)c1c[nH]c2ncccc12 [P-0177, [2-(4-fluoro-benzylamino)-thiazol-5-yl]-(1H-pyrrolo[2,3-b]pyridin-3-yl)-methanone]	< 1000	< 1000	–	–
Cc1nc(CNc2nc(Cl)c(Cc3c[nH]c4ncc(Cl)cc34)s2)cs1 [P-0201, [4-Chloro-5-(5-chloro-1H-pyrrolo[2,3-b]pyridin-3-ylmethyl)-thiazol-2-yl]-(2-methyl-thiazol-4-ylmethyl)-amine]	< 1000	< 1000	–	–
FC(F)(F)Oc1ccccc1CNc1ncc(Cc2c[nH]c3ncccc23)cn1 [P-0303, [5-(1H-Pyrrolo[2,3-b]pyridin-3-ylmethyl)-pyrimidin-2-yl]-(2-trifluoromethoxy-benzyl)-amine]	–	< 1000	–	< 1000
Cn1cc(-c2cnc3[nH]cc(Cc4cc(NCc5ccc(F)cc5)nn4C)c3c2)cn1 [P-0180, (4-Fluoro-benzyl)-{1-methyl-5-[5-(1-methyl-1H-pyrazol-4-yl)-1H-pyrrolo[2,3-b]pyridin-3-ylmethyl]-1H-pyrazol-3-yl}-amine]	–	< 1000	–	< 1000
Fc1cncc(CNc2ccc(Cc3c[nH]c4ncc(Cl)cc34)cn2)c1 [P-0324, [5-(5-chloro-1H-pyrrolo[2,3-b]pyridin-3-ylmethyl)-pyridin-2-yl]-(5-fluoro-pyridin-3-ylmethyl)-amine]	< 1000	< 1000	–	–
Fc1ccc(CNc2nc(Cl)c(Cc3c[nH]c4ncccc34)s2)nc1 [P-0206, [4-Chloro-5-(1H-pyrrolo[2,3-b]pyridin-3-ylmethyl)-thiazol-2-yl]-(5-fluoro-pyridin-2-ylmethyl)-amine]	< 1000	< 1000	–	–
Fc1ccc(CNc2nc(Cl)c(Cc3c[nH]c4ncc(Cl)cc34)s2)cc1 [P-0195, [4-Chloro-5-(5-chloro-1H-pyrrolo[2,3-b]pyridin-3-ylmethyl)-thiazol-2-yl]-(4-fluoro-benzyl)-amine]	< 1000	< 1000	–	–
Cn1cc(-c2cnc3[nH]cc(Cc4ccc(NCc5ccc(C(F)(F)F)nc5)nc4Cl)c3c2)cn1 [P-0179, {6-Chloro-5-[5-(1-methyl-1H-pyrazol-4-yl)-1H-pyrrolo[2,3-b]pyridin-3-ylmethyl]-pyridin-2-yl}-(6-trifluoromethyl-pyridin-3-ylmethyl)-amine]	< 1000	< 1000	–	< 1000
Cc1cccc(CNc2nc(Cl)c(Cc3c[nH]c4ncc(Cl)cc34)s2)n1 [P-0255, [4-Chloro-5-(5-chloro-1H-pyrrolo[2,3-b]pyridin-3-ylmethyl)-thiazol-2-yl]-(6-methyl-pyridin-2-ylmethyl)-amine]	< 1000	< 1000	–	–
O=C(Nc1cccc(F)c1)Nc1ccc(Cc2c[nH]c3ncccc23)cn1 [P-0412, 1-(3-fluoro-phenyl)-3-[5-(1H-pyrrolo[2,3-b]pyridin-3-ylmethyl)-pyridin-2-yl]-urea]	–	< 1000	–	< 1000
COc1cncc(CNc2nc(Cl)c(Cc3c[nH]c4ncc(Cl)cc34)s2)c1 [P-0241, [4-Chloro-5-(5-chloro-1H-pyrrolo[2,3-b]pyridin-3-ylmethyl)-thiazol-2-yl]-(5-methoxy-pyridin-3-ylmethyl)-amine]	< 1000	–	–	–
